Data taken from the supplement of paper PMC10307832.

Compound: CCN1CCC(CC1)N2C=C(N=N2)CNC3=CC4=C(C(=CN=C4C(=C3)Cl)C#N)NC5=CC(=C(C=C5)F)Cl [KIN001-266] + Cc1cc(Nc2cc(N3CCN(C)CC3)nc(Sc3ccc(NC(=O)C4CC4)cc3)n2)n[nH]1 [Tozasertib] (partner 0.1 µM)
Test: relative viability (nuclei count vs DMSO), 5 days (fraction); higher = more cells survive
Procedure, shortened: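 For relative viability, nuclei counts in treated wells were divided by those in vehicle wells. Lung cancer cell lines had been pin-tool dosed in 1536-well plates the day after seeding and cultured for 5 days, then fixed and stained in one step (final 0.05% Triton X-100, 1% formaldehyde, 1 ug/ml Hoechst) and imaged at 4×. Doses were one drug alone or a fixed anchor-drug dose plus five library-drug doses (not always all listed) in √10 steps, and values are duplicate-plate medians.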

Cell Line | relative viability (first compound 0.08 µM) | relative viability (first compound 0.253 µM) | relative viability (first compound 0.8 µM) | relative viability (first compound 2.53 µM) | relative viability (first compound 8 µM)
201T | 0.915 | 0.915 | 0.915 | 0.919 | 0.856
A-427 | 0.24 | 0.21 | 0.178 | 0.186 | 0.181
ABC-1 | 0.156 | 0.227 | 0.199 | 0.166 | 0.204
BEN | 0.479 | 0.534 | 0.491 | 0.484 | 0.506
CAL-12T | 0.345 | 0.3 | 0.291 | 0.312 | 0.255
COR-L23 | 0.19 | 0.182 | 0.206 | 0.164 | 0.151
COR-L 105 | 0.388 | 0.322 | 0.381 | 0.342 | 0.296
ChaGo-K-1 | 0.245 | 0.218 | 0.213 | 0.207 | 0.198
EKVX | 0.319 | 0.376 | 0.374 | 0.392 | 0.409
EMC-BAC-2 | 0.307 | 0.316 | 0.292 | 0.29 | 0.281
EPLC-272H | 0.258 | 0.377 | 0.383 | 0.244 | 0.208
H3255 | 0.699 | 0.601 | 0.502 | 0.499 | 0.512
HARA | 0.124 | 0.13 | 0.102 | 0.0995 | 0.0873
HCC-15 | 0.443 | 0.358 | 0.25 | 0.24 | 0.19
HCC-44 | 0.886 | 0.917 | 0.976 | 0.987 | 0.865
HCC-78 | 0.404 | 0.444 | – | 0.373 | 0.317
HCC-366 | 0.156 | 0.286 | 0.0999 | 0.127 | 0.111
HCC-827 | 0.442 | 0.432 | 0.41 | 0.359 | 0.389

Cell Line | relative viability (first compound 0.08 µM) | relative viability (first compound 0.253 µM) | relative viability (first compound 0.8 µM) | relative viability (first compound 2.53 µM) | relative viability (first compound 8 µM)
HOP-62 | 0.414 | 0.381 | 0.384 | 0.328 | 0.319
LC-2-ad | 0.451 | 0.409 | 0.516 | 0.444 | 0.447
LCLC-97TM1 | 0.196 | 0.209 | 0.186 | 0.171 | 0.223
LCLC-103H | 0.492 | 0.494 | 0.413 | 0.52 | 0.504
LK-2 | 0.182 | 0.18 | 0.174 | 0.185 | 0.154
LOU-NH91 | 0.675 | 0.689 | 0.492 | 0.609 | 0.501
LU99A | 0.282 | 0.29 | 0.259 | 0.21 | 0.191
LXF-289 | 0.186 | 0.236 | 0.172 | 0.201 | 0.189
NCI-H23 | 0.359 | 0.381 | 0.376 | 0.41 | 0.271
NCI-H322M | 0.451 | 0.554 | 0.513 | 0.433 | 0.458
NCI-H358 | 0.107 | 0.129 | 0.132 | 0.0982 | 0.0945
NCI-H441 | 0.75 | 0.737 | 0.557 | 0.56 | 0.261
NCI-H460 | 0.553 | 0.423 | 0.333 | 0.54 | 0.121
NCI-H520 | 0.426 | 0.441 | 0.434 | 0.466 | 0.413
NCI-H522 | 0.562 | 0.498 | 0.566 | 0.502 | 0.594
NCI-H596 | 0.882 | 0.893 | 0.881 | 0.925 | 0.786
NCI-H647 | 0.277 | 0.213 | 0.265 | 0.352 | 0.156
NCI-H650 | 0.791 | 0.713 | 0.74 | 0.732 | 0.672
